Legend:
[1] = target: NAMPT (human, recombinant, C-terminally His-tagged) (Homo sapiens, UniProt P43490); assay: Time-Resolved Fluorescence Resonance Energy Transfer (TR-FRET) Binding Assay of NAMPT; settings: 6.8 nM NAMPT, 200 nM probe, equilibrated 3 hours, absence of substrates
Summary of the method: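 Recombinant C-terminally His-tagged human NAMPT (6.8 nM) incubated 3 h at room temperature with 200 nM Oregon Green 488–labelled nicotinamide-competitive probe and 1 nM Tb-anti-His antibody in HEPES pH 7.5, 2% DMSO. TR-FRET ratio Em520/Em495 normalized to controls; IC50 from four-parameter logistic fit.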

[2] = target: NAMPT (Homo sapiens, UniProt P43490); assay: Time-Resolved Fluorescence Resonance Energy Transfer (TR-FRET) Binding Assay of NAMPT with PRPP; settings: 2 nM NAMPT, 2 nM probe, 200 uM PRPP and 2.5 mM ATP, equilibrated 16 hours
NAMPT, sequence (P43490 whole entry): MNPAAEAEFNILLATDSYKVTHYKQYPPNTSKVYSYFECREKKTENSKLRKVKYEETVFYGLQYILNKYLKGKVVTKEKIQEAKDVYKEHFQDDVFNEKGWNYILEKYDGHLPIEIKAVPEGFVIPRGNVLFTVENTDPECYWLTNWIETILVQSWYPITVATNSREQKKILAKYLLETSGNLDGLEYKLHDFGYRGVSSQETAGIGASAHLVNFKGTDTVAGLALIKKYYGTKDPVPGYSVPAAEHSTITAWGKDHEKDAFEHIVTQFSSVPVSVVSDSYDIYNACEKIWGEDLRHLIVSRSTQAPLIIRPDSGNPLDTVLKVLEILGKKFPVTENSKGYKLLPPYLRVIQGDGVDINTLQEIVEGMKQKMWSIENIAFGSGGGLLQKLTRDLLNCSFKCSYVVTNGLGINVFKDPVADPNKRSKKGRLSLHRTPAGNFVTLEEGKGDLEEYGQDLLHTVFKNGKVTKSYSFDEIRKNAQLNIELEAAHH
Summary of the method: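 Final mix: 2 nM NAMPT, 2 nM probe, 1 nM Tb-anti-His antibody, 200 uM PRPP, 2.5 mM ATP, 2% DMSO in 1× assay buffer. Equilibrated 16 hours before TR-FRET read, allowing possible enzymatic modification of compounds.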

NAMPT (human, recombinant, C-terminally His-tagged), sequence (P43490 whole entry): as above

Row | Structure (SMILES) | IC50 [1] [µM] | IC50 [2] [µM]
1 | Cc1ccc(C)c(C(=O)N2CCC(c3ccc(NC(=O)C4CN(c5cccnn5)C4)cc3)CC2)c1 [Example 359, N-{4-[1-(2,5-dimethylbenzoyl)piperidin-4-yl]phenyl}-1-(pyridazin-3-yl)azetidine-3-carboxamide] | 0.0213 | 0.000869
2 | CC(=O)N1CCC(c2ccc(NC(=O)C3CN(c4cccnc4C)C3)cc2)CC1 [Example 178, N-[4-(1-acetylpiperidin-4-yl)phenyl]-1-(2-methylpyridin-3-yl)azetidine-3-carboxamide] | 0.247 | 0.0652
3 | N#Cc1cccc(C(=O)N2CCC(c3ccc(NC(=O)C4CN(c5cccnn5)C4)cc3)CC2)c1 [Example 352, N-{4-[1-(3-cyanobenzoyl)piperidin-4-yl]phenyl}-1-(pyridazin-3-yl)azetidine-3-carboxamide] | 0.0958 | 0.000615
4 | O=C(Nc1ccc(OC2CCN(C(=O)[C@@H]3CCCO3)CC2)cc1)C1CN(c2cccnc2)C1 [Example 33, 1-(pyridin-3-yl)-N-[4-({1-[(2S)-tetrahydrofuran-2-ylcarbonyl]piperidin-4-yl}oxy)phenyl]azetidine-3-carboxamide] | 0.109 | 0.000342
5 | O=C(Nc1ccc(OC2CCN(C(=O)c3cscn3)CC2)cc1)C1CN(c2cccnn2)C1 [Example 218, 1-(pyridazin-3-yl)-N-(4-{[1-(1,3-thiazol-4-ylcarbonyl)piperidin-4-yl]oxy}phenyl)azetidine-3-carboxamide] | 0.265 | 0.00164
6 | Cc1ncccc1N1CC(C(=O)Nc2ccc(C3CCN(C(=O)CCN(C)C)CC3)cc2)C1 [Example 168, N-{4-[1-(N,N-dimethyl-beta-alanyl)piperidin-4-yl]phenyl}-1-(2-methylpyridin-3-yl)azetidine-3-carboxamide] | 2.94 | 0.171
7 | O=C(Nc1ccc(C2CCN(C(=O)Cc3cc(F)cc(F)c3)CC2)cc1)C1CN(c2cccnn2)C1 [Example 384, N-(4-{1-[(3,5-difluorophenyl)acetyl]piperidin-4-yl}phenyl)-1-(pyridazin-3-yl)azetidine-3-carboxamide] | 0.0288 | 0.000497
8 | CC(=O)N1CCC(c2ccc(NC(=O)C3CN(c4cccnn4)C3)cc2)CC1 [Example 316, N-[4-(1-acetylpiperidin-4-yl)phenyl]-1-(pyridazin-3-yl)azetidine-3-carboxamide] | 0.104 | 0.000924
9 | O=C(Nc1ccc(C2CCN(C(=O)c3cccc(F)c3)CC2)cc1)C1CN(c2cccnn2)C1 [Example 348, N-{4-[1-(3-fluorobenzoyl)piperidin-4-yl]phenyl}-1-(pyridazin-3-yl)azetidine-3-carboxamide] | 0.0153 | 0.000628
10 | CC[C@H](C)C(=O)N1CCC(Oc2ccc(C(=O)NC3CN(c4cccnc4)C3)cc2)CC1 [Example 23, 4-({1-[(2S)-2-methylbutanoyl]piperidin-4-yl}oxy)-N-[1-(pyridin-3-yl)azetidin-3-yl]benzamide] | 1.95 | 0.00061
11 | CC(C)(C)C(=O)N1CCC(Oc2ccc(NC(=O)C3CN(c4cccnc4)C3)cc2)CC1 [Example 42, N-(4-{[1-(2,2-dimethylpropanoyl)piperidin-4-yl]oxy}phenyl)-1-(pyridin-3-yl)azetidine-3-carboxamide] | 0.226 | 0.00239
12 | O=C(Nc1ccc(C2CCN(C(=O)Cc3ccccc3F)CC2)cc1)C1CN(c2cccnn2)C1 [Example 366, N-(4-{1-[(2-fluorophenyl)acetyl]piperidin-4-yl}phenyl)-1-(pyridazin-3-yl)azetidine-3-carboxamide] | 0.0351 | 0.000681
13 | Cc1ncccc1N1CC(C(=O)Nc2ccc(C3CCN(C(=O)C4(C)CCCCC4)CC3)cc2)C1 [Example 177, N-(4-{1-[(1-methylcyclohexyl)carbonyl]piperidin-4-yl}phenyl)-1-(2-methylpyridin-3-yl)azetidine-3-carboxamide] | 0.0604 | 0.0913
14 | CC(=O)N1CCC(Oc2ccc(NC(=O)C3CN(c4cccnn4)C3)cc2)CC1 [Example 244, -{4-[(1-acetylpiperidin-4-yl)oxy]phenyl}-1-(pyridazin-3-yl)azetidine-3-carboxamide] | 0.449 | 0.000916
15 | O=C(Nc1ccc(C2CCN(C(=O)c3ccc(Cl)cc3Cl)CC2)cc1)C1CN(c2cccnn2)C1 [Example 362, N-{4-[1-(2,4-dichlorobenzoyl)piperidin-4-yl]phenyl}-1-(pyridazin-3-yl)azetidine-3-carboxamide] | 0.0152 | 0.000832
16 | O=C(Nc1ccc(C2CCN(C(=O)Cc3ccc(Cl)cc3)CC2)cc1)C1CN(c2cccnn2)C1 [Example 370, N-(4-{1-[(4-chlorophenyl)acetyl]piperidin-4-yl}phenyl)-1-(pyridazin-3-yl)azetidine-3-carboxamide] | 0.0305 | 0.000555

Row | Structure (SMILES) | IC50 [1] [µM] | IC50 [2] [µM]
17 | O=C(Nc1ccc(OC2CCN(CC3CC3)CC2)cc1)C1CN(c2cccnc2)C1 [Example 74, N-(4-{[1-(cyclopropylmethyl)piperidin-4-yl]oxy}phenyl)-1-(pyridin-3-yl)azetidine-3-carboxamide] | 0.911 | 0.000666
18 | CC(C)(O)C(=O)N1CC(Oc2ccc(NC(=O)C3CN(c4ccnnc4)C3)cc2)C1 [Example 207, N-(4-{[1-(2-hydroxy-2-methylpropanoyl)azetidin-3-yl]oxy}phenyl)-1-(pyridazin-4-yl)azetidine-3-carboxamide] | 0.141 | 0.0867
19 | O=C(Nc1ccc(OC2CCN(C(=O)CC3CCOCC3)CC2)cc1)[C@H]1CCN(c2cccnc2)C1 [Example 11, (3S)-1-(pyridin-3-yl)-N-(4-{[1-(tetrahydro-2H-pyran-4-ylacetyl)piperidin-4-yl]oxy}phenyl)pyrrolidine-3-carboxamide] | 2.37 | 0.00193
20 | O=C(Nc1ccc(OC2CCN(C(=O)c3cccc(C(F)(F)F)c3)CC2)cc1)C1CN(c2ccnnc2)C1 [Example 285, 1-(pyridazin-4-yl)-N-[4-({1-[3-(trifluoromethyl)benzoyl]piperidin-4-yl}oxy)phenyl]azetidine-3-carboxamide] | 0.149 | 0.0862
21 | Cc1ncccc1N1CC(C(=O)Nc2ccc(C3CCN(C(=O)CC(C)(C)C)CC3)cc2)C1 [Example 192, N-{4-[1-(3,3-dimethylbutanoyl)piperidin-4-yl]phenyl}-1-(2-methylpyridin-3-yl)azetidine-3-carboxamide] | 0.0473 | 0.0723
22 | Cc1ncccc1N1CC(C(=O)Nc2ccc(C3CCN(C(=O)CC(F)(F)F)CC3)cc2)C1 [Example 182, 1-(2-methylpyridin-3-yl)-N-{4-[1-(3,3,3-trifluoropropanoyl)piperidin-4-yl]phenyl}azetidine-3-carboxamide] | 0.14 | 0.104
23 | O=C(Nc1ccc(C2CCN(C(=O)CC3CCOCC3)CC2)cc1)[C@H]1CCN(c2cccnn2)C1 [Example 312, (3S)-1-(pyridazin-3-yl)-N-{4-[1-(tetrahydro-2H-pyran-4-ylacetyl)piperidin-4-yl]phenyl}pyrrolidine-3-carboxamide] | 1.13 | 0.00894
24 | Cc1ncccc1N1CC(C(=O)Nc2ccc(C3CCN(C(=O)C(C)(C)O)CC3)cc2)C1 [Example 71, N-{4-[1-(2-hydroxy-2-methylpropanoyl)piperidin-4-yl]phenyl}-1-(2-methylpyridin-3-yl)azetidine-3-carboxamide] | 0.0412 | 0.0146
25 | O=C(Nc1ccc(C2CCN(C(=O)CCC(F)(F)F)CC2)cc1)C1CN(c2cccnc2)C1 [Example 112, 1-(pyridin-3-yl)-N-{4-[1-(4,4,4-trifluorobutanoyl)piperidin-4-yl]phenyl}azetidine-3-carboxamide] | 0.0402 | 0.000362
26 | O=C(Nc1ccc(OC2CCN(C(=O)C(F)(F)c3ccccc3)CC2)cc1)C1CN(c2ccnnc2)C1 [Example 269, N-[4-({1-[difluoro(phenyl)acetyl]piperidin-4-yl}oxy)phenyl]-1-(pyridazin-4-yl)azetidine-3-carboxamide] | 0.0377 | 0.0223
27 | CCC(C)(C)C(=O)N1CCC(Oc2ccc(NC(=O)C3CN(c4ccnnc4)C3)cc2)CC1 [Example 300, N-(4-{[1-(2,2-dimethylbutanoyl)piperidin-4-yl]oxy}phenyl)-1-(pyridazin-4-yl)azetidine-3-carboxamide] | 0.0642 | 0.0391
28 | CC(C)C(C)C(=O)N1CCC(Oc2ccc(NC(=O)C3CN(c4cccnc4)C3)cc2)CC1 (centres unmarked) [Example 70, N-(4-{[1-(2,3-dimethylbutanoyl)piperidin-4-yl]oxy}phenyl)-1-(pyridin-3-yl)azetidine-3-carboxamide] | 0.0357 | 0.000742
29 | CC(C)(C)CC(=O)N1CCC(c2ccc(NC(=O)C3CN(c4cccnc4)C3)cc2)CC1 [Example 132, N-{4-[1-(3,3-dimethylbutanoyl)piperidin-4-yl]phenyl}-1-(pyridin-3-yl)azetidine-3-carboxamide] | 0.00846 | 0.000441
30 | O=C(Nc1ccc(OC2CCN(C(=O)C3CCOC3)CC2)cc1)[C@H]1CCN(c2cccnc2)C1 (stereo partly drawn) [Example 15, (3S)-1-(pyridin-3-yl)-N-(4-{[1-(tetrahydrofuran-3-ylcarbonyl)piperidin-4-yl]oxy}phenyl)pyrrolidine-3-carboxamide] | 1.66 | 0.00249
31 | Cc1ccc(C(=O)N2CCC(c3ccc(NC(=O)C4CN(c5cccnc5)C4)cc3)CC2)s1 [Example 126, N-(4-{1-[(5-methylthiophen-2-yl)carbonyl]piperidin-4-yl}phenyl)-1-(pyridin-3-yl)azetidine-3-carboxamide] | 0.0149 | 0.000359
